# Measurements reported in PubChem BioAssay AID1918954 (Molecular Pharmacology Branch, DTP, NCI, 2023).
# pIC50: −log10 of the molar value.
# Tested on: MDA-MB-468 complex spheroids with HUVEC/MSC, viability
# Test: Anticancer human tumor MDA-MB-468 cell line growth inhibition;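 further: spheroids exposed to agents for seven days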;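 on viability, T/C: 100% = DMSO vehicle control viability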
# Conditions: for pIC50: curve of first compound; for viability, T/C: stronger effect = lower value
# Outline: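 Drug combinations with the LSD1 inhibitor iadademstat tested on tumor cells co-cultured as spheroids with endothelial cells and mesenchymal stem cells. Concentrations descended in half-log increments from clinical Cmax or 10 microM.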
# [1] = second compound 0.1 µM, first compound 0.0316 µM
# [2] = second compound 0.1 µM, first compound 0.1 µM
# [3] = second compound 0.1 µM, first compound 0.316 µM
# [4] = second compound 0.1 µM, first compound 1 µM
# [5] = second compound 0.1 µM, first compound 3.16 µM
# [6] = second compound 0.1 µM, first compound 10 µM
# [7] = second compound 0.316 µM, first compound 0.0316 µM
# [8] = second compound 0.316 µM, first compound 0.1 µM
# [9] = second compound 0.316 µM, first compound 0.316 µM
# [10] = second compound 0.316 µM, first compound 1 µM
# [11] = second compound 0.316 µM, first compound 3.16 µM
# [12] = second compound 0.316 µM, first compound 10 µM
# [13] = second compound 1 µM, first compound 0.0316 µM
# [14] = second compound 1 µM, first compound 0.1 µM
# [15] = second compound 1 µM, first compound 0.316 µM
# [16] = second compound 1 µM, first compound 1 µM
# [17] = second compound 1 µM, first compound 3.16 µM
# [18] = second compound 1 µM, first compound 10 µM
# [19] = second compound 3.16 µM, first compound 0.0316 µM
# [20] = second compound 3.16 µM, first compound 0.1 µM
# [21] = second compound 3.16 µM, first compound 0.316 µM
# [22] = second compound 3.16 µM, first compound 1 µM
# [23] = second compound 3.16 µM, first compound 3.16 µM
# [24] = second compound 3.16 µM, first compound 10 µM
# [25] = second compound 10 µM, first compound 0.0316 µM
# [26] = second compound 10 µM, first compound 0.1 µM
# [27] = second compound 10 µM, first compound 0.316 µM
# [28] = second compound 10 µM, first compound 1 µM
# [29] = second compound 10 µM, first compound 3.16 µM
# [30] = second compound 10 µM, first compound 10 µM
Structure (SMILES),pIC50 (second compound 0.1 µM),pIC50 (second compound 0.316 µM),pIC50 (second compound 1 µM),pIC50 (second compound 3.16 µM),pIC50 (second compound 10 µM),"viability, T/C [1]","viability, T/C [2]","viability, T/C [3]","viability, T/C [4]","viability, T/C [7]","viability, T/C [8]","viability, T/C [9]","viability, T/C [10]","viability, T/C [13]","viability, T/C [14]","viability, T/C [15]","viability, T/C [16]","viability, T/C [19]","viability, T/C [20]","viability, T/C [21]",other results
CC(C)c1c(-c2ccccc2)nc2c(C#N)c[nH]n2c1=O + NC1CC1c1ccc(-c2cccc(O)c2)cc1,< 5.00,< 5.00,< 5.00,< 5.00,< 5.00,91.7%,89.1%,94.4%,96%,89.2%,82.6%,92.5%,91.4%,89.1%,88%,86.7%,102%,102%,83.5%,87.6%,"viability, T/C [5]: 96.7%; viability, T/C [6]: 84.1%; viability, T/C [11]: 89.4%; viability, T/C [12]: 87.9%; viability, T/C [17]: 89.7%; viability, T/C [18]: 79.5%; viability, T/C [22]: 88.2%; viability, T/C [23]: 81.3%; viability, T/C [24]: 74.7%; viability, T/C [25]: 66.7%; viability, T/C [26]: 67%; viability, T/C [27]: 59.3%; viability, T/C [28]: 57.2%; viability, T/C [29]: 67.1%; viability, T/C [30]: 49.4%"
CC1COCCN1c1cc(-c2ccnn2C)c2ccnc(-c3ccn[nH]3)c2n1 (stereo not given) + NC1CC1c1ccc(-c2cccc(O)c2)cc1,> 8.50,> 8.50,> 8.50,> 8.50,> 8.50,16.7%,7.91%,5.23%,2.24%,17%,7.28%,4.97%,2.27%,15.5%,7.91%,5.09%,2.01%,12.3%,7.5%,5.19%,"viability, T/C (second compound 0.1 µM, first compound 0.00316 µM): 40%; viability, T/C (second compound 0.1 µM, first compound 0.01 µM): 30.1%; viability, T/C (second compound 0.316 µM, first compound 0.00316 µM): 37.9%; viability, T/C (second compound 0.316 µM, first compound 0.01 µM): 27.4%; viability, T/C (second compound 1 µM, first compound 0.00316 µM): 29.2%; viability, T/C (second compound 1 µM, first compound 0.01 µM): 28%; viability, T/C (second compound 3.16 µM, first compound 0.00316 µM): 27.4%; viability, T/C (second compound 3.16 µM, first compound 0.01 µM): 22.4%; viability, T/C [22]: 2.2%; viability, T/C (second compound 10 µM, first compound 0.00316 µM): 20.3%; viability, T/C (second compound 10 µM, first compound 0.01 µM): 17.1%; viability, T/C [25]: 10.4%; viability, T/C [26]: 6.9%; viability, T/C [27]: 5.95%; viability, T/C [28]: 2.01%"
COc1ccc([C@@H](O)c2cc(-c3ncnc4cc(N5CCOCC5)ccc34)c(F)cc2Cl)nn1 + NC1CC1c1ccc(-c2cccc(O)c2)cc1,6.06,6.06,6.14,6.15,6.64,113%,103%,69.1%,47.4%,107%,82.3%,69.8%,52.8%,109%,109%,71.9%,39.6%,102%,87.8%,73.4%,"viability, T/C [5]: 26.1%; viability, T/C [6]: 6.17%; viability, T/C [11]: 25.9%; viability, T/C [12]: 5.99%; viability, T/C [17]: 21%; viability, T/C [18]: 5.38%; viability, T/C [22]: 37.2%; viability, T/C [23]: 21.5%; viability, T/C [24]: 4.59%; viability, T/C [25]: 69.2%; viability, T/C [26]: 59.8%; viability, T/C [27]: 45.1%; viability, T/C [28]: 33.2%; viability, T/C [29]: 20.1%; viability, T/C [30]: 2.86%"
